The subject of one assay is peroxidase. Nature of the assay: Peroxidase assay in saliva (Amplex Red). The assay is classed as biochemical. On the procedure:
To determine the effect of various GRAS compounds as inhibitors of peroxidase activity, a standard assay using Amplex® Red (Life Technologies), which releases a fluorescent oxidation product.
The test compounds, such as GRAS materials or cocktails of same, were prepared at a concentration of 500 ppm in distilled water. For the assay, 50 μl samples of test compounds were mixed with 20-30 μl of saliva (either “pooled” or “unpooled”) prior to the addition of Amplex® Red. […] Reactions were allowed to run for 30 minutes during these assays.

For another assay, the target named is T1, α-amylase (Homo sapiens, UniProt P0DUB6).
T1 sequence (P0DUB6 16-511): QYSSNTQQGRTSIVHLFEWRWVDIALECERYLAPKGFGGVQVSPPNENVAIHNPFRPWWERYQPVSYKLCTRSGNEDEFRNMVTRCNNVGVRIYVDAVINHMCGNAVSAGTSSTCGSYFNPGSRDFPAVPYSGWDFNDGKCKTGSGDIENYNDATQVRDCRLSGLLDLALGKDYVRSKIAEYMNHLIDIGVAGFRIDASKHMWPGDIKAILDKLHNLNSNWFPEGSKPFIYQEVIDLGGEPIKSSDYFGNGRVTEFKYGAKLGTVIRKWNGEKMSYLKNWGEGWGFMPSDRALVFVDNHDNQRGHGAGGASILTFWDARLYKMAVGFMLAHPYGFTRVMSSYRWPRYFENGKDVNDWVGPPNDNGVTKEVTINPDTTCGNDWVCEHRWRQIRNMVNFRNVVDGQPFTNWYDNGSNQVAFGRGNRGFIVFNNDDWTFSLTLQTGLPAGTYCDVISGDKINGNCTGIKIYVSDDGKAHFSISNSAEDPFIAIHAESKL
Nature of the assay: α-Amylase inhibition saliva screening (chromogenic substrate, 405 nm). The assay is classed as biochemical. To be noted: for Ave (absorbance at 405 nm): average of 4 readings; for absorbance at 405 nm, single reading: test compound prepared at 5,000 ppm, 37° C. The source says:
Further details of these five compounds may also be seen in Table 4.

Another assay relates to protease. To be noted: natural protease inhibitors; cited from earlier work.
The mark [1] stands for this setting: 500 ppm, pooled and unpooled saliva controls, 30 minutes, FIGS. 26-29.

Several values for one entry are separate records, joined by “and”; a condition that tells them apart may be missing. Equal values may be shown once. Read-outs that look alike come from different tables or passages of the source.

Regarding “Aluminum potassium sulfate dodecahydrate [CDI-42]”, the peroxidase inhibition entry in the assay with peroxidase (setting [1]) is “showed significant peroxidase inhibition capabilities”. Moreover, the “Ave (absorbance at 405 nm)” value on α-amylase (Time 0 min) worked out at 0.92; at α-amylase (Time 5 min) it was 1.85; at α-amylase (Time 15 min), 2.29. The “absorbance at 405 nm, single reading” value is 0.80 and 1.13 and 0.90 and 0.84 at α-amylase (Time 0 min); 1.65 and 2.15 and 1.80 and 1.81 on α-amylase (Time 5 min); 2.37 and 2.38 and 2.25 and 2.17 on α-amylase (Time 15 min).
In the case of `Cn1c(=O)c2c(ncn2C)n(C)c1=O` [CDI #33, Caffeine], the peroxidase inhibition result in the assay on peroxidase (setting [1]) is “showed significant peroxidase inhibition capabilities”.
Take `O=C(O)c1ccccc1` [CDI #16, Benzoic acid]: the peroxidase inhibition result in the assay on peroxidase is reported as “showed significant peroxidase inhibition capabilities”.
Take `COc1ccc(O)c(C(C)(C)C)c1` [CDI-039, 3-tert--butyl-hydroxyanisole]: in the assay on peroxidase (setting [1]), the peroxidase inhibition entry is recorded as “showed significant peroxidase inhibition capabilities”.
Consider Aluminum sulfate hydrate [CDI-34], for which the entries for the “Ave (absorbance at 405 nm)” value on α-amylase (Time 0 min), at α-amylase (Time 5 min) and on α-amylase (Time 15 min) were 0.40, 0.50 and 0.56, respectively. Also, the “absorbance at 405 nm, single reading” value is 0.40 and 0.36 and 0.45 at α-amylase (Time 0 min, sulfate hydrate); 0.49 and 0.50 and 0.52 on α-amylase (Time 5 min, sulfate hydrate); 0.53 and 0.61 and 0.54 and 0.56 on α-amylase (Time 15 min, sulfate hydrate).

B1: Soybeans: primary soybean protease inhibitor, 20.7-22.3 kDa (protein, UniProt P01070 25-205, looked up)
Trypsin inhibitor A: DFVLDNEGNPLENGGTYYILSDITAFGGIRAAPTGNERCPLTVVQSRNELDKGIGTIISSPYRIRFIAEGHPLSLKFDSFAVIMLCVGIPTEWSVVEDLPEGPAVKIGENKDAMDGWFRLERVSDDEFNNYKLVFCPQQAEDDKCGDIGISIDHDDGTRRLVVSKNKPLVVQFQKLDKESL
As to B1, the Inhibitory power in the assay with protease is on record as 1.2 times times weight.

Values taken from patent US20110195427A1, “SYSTEMS AND METHODS FOR DETECTING PREGNANCY” (priority 2010, published 2011).
